Test results published in patent US20210077559A1, “Treating Autoimmune Disorders with Acetylcholinesterase Inhibitors” (priority 2018, published 2021).

Tests used:
[1] = tested on: Demodex mites; test: In vitro Demodex survival time assay; details: in vitro assay (FIG. 3 and 4)
Procedure: FIG. 4 summarizes the activity of 10% chloroquine in water relative to a water control on activity against Demodex mites in an in vitro assay, with an LT50 of 31.6 hours for chloroquine compared to 44.8 hours for the water control, illustrating the inactivation effect of chloroquine on Demodex.
Example 4: In vitro efficacy and mite lifetimes: Relative efficacy of various formulations are evaluated with a Demodex survival time experiments. FIG. 3 tabulates Demodex survival time, expressed in terms of LT50 (time at which 50% of Demodex mites are killed) and/or average minutes to death for various active agents.

[2] = tested on: Demodex mites; details: dichlorvos 1%, one patient; PCT Pub. No. WO 2015/017328; cited from earlier work

## CCN(CC)CCCC(C)Nc1ccnc2cc(Cl)ccc12 (centres unmarked) [chloroquine]
[1]
  activity against Demodex mites: has activity against Demodex mites

## COP(=O)(OC)OC=C(Cl)Cl [dichlorvos]
[2]
  remission of Papulopostular Rosacea (PPR): complete and continued remission
